# US12006294B2, “Therapeutic compounds” (REGENTS OF THE UNIVERSITY OF MINNESOTA, priority 2017, dated 2024)
# Entries after “also recorded” stand apart in the source; their conditions may differ. Read-outs that look alike come from different tables or passages of the source.
# What was measured:
# mice [1] = assay: Tail flick assay of drug combinations (morphine or acetaminophen + GA and/or analogs); settings: acetaminophen:BC1-45-1 ratios 500:1 to 1000:1; acetate
# mice [2] = assay: Acetaminophen hepatotoxicity (ALT, TBARS, survival); settings: for elevated ALT levels after acetaminophen overdose: delayed administration post APAP administration; for hepatotoxicity of acetaminophen (ALT levels): pretreatment (30 min) before acetaminophen
# Hela Cells = assay: Cellular ER stress model (tunicamycin, WST-8 cell viability); settings: for AntiERStress (% Cell Survival): HeLa cells, tunicamycin 48 hours, WST-8; for viability at 2.5 µM: Homo sapiens, HeLa, 48 h
# CAD5 cells = format: cell-based
# C57BL/6J mice = assay: MOG-induced experimental autoimmune encephalomyelitis (EAE); format: in vivo; settings: daily treatment starting on PID 10, preliminary results, FIG. 2
SMILES,analgesic synergy with acetaminophen in tail flick assay (mice [1]),survival rate (mice [2]; all treatment groups (pretreatment and delayed 0.5-8 h post acetaminophen)) [%],elevated ALT levels after acetaminophen overdose (mice [2]; acetate),hepatotoxicity of acetaminophen (ALT levels) (mice [2]; acetate),AntiERStress (% Cell Survival) (Hela Cells),"viability at 2.5 µM (Hela Cells; read-out: % Cell Survival Cmpd(2.5 μM) + Tuni, Hela cells, compound 2.5 μM + tunicamycin, WST-8 viability 48 hours after tunicamycin treatment) [%]","viability at 2.5 µM (Hela Cells; read-out: Compounds ERS (vs Tn), ERS activity vs Tuni = % cell survival (compound)/% cell survival (tunicamycin), compound 2.5 μM) [%]",1/Elispot (CAD5 cells),AntiPrion (Number of Cells × 10^4) (CAD5 cells),EliSpot (Spots/10000 Cells) (CAD5 cells),Elispot (vs PC) (CAD5 cells),"lipid peroxidation products (TBARS assay) (mice [2]; acetaminophen overdose, FIG. 7, acetate)",survival rate (mice [2]; delayed administration post APAP) [%],"survival rate (mice [2]; pretreated animals, acetaminophen overdose) [%]",ERS (vs Tn) (Hela Cells; % cell survival (compound)/% cell survival (tunicamycin)),EAE disease severity (clinical severity score) (C57BL/6J mice),EAE disease severity (clinical severity score) (C57BL/6J mice; listed as sephin 1)
"N=C(N)N/N=C/c1c(Cl)cccc1Cl [BC1-45-1, guanabenz, acetate]",exhibited synergy in the analgesic activity; also recorded: provided synergy at all the time points tested,100,reduces elevated levels of ALT; also recorded: limited the hepatotoxicity of acetaminophen,can limit the hepatotoxicity of acetaminophen; also recorded: limited the hepatotoxicity of acetaminophen,–,–,–,–,–,–,–,–,–,–,–,–,–
"N=C(N)N/N=C\c1c(Cl)cccc1Cl [BC1-55-1, (Z)-2-(2,6-dichlorobenzylidene)hydrazinecarboximidamide acetate]",–,–,reduces elevated levels of ALT,can limit the hepatotoxicity of acetaminophen; also recorded: limited the hepatotoxicity of acetaminophen,64.33,22.1,96,0.59,3 × 10^4,2200,1.69,can reduce the lipid peroxidation products; also recorded: limited the elevated lipid peroxidation byproducts,100,100,–,–,–
"NC(N)=N/N=C/c1ccccc1Cl [Sephin 1, reference compound]",–,–,–,–,87.19,–,–,1.63,32 × 10^4,800,0.62,–,–,–,1.80,markedly attended the EAE disease severity,attends the EAE disease severity
